Experimental data reported in the C3SDB collision cross section collection.
“And” between values parts separate entries of the source, which are not always exact repeats. Equal entries are not always repeated.

Settings: instrument: DT, single field, calibrated with ESI Low Concentration Tuning Mix (Agilent)

Compound	collision cross section (N2) ([M+H]+)	collision cross section (N2) ([M+Na-2H]-)	collision cross section (N2) ([M+Na]+)	collision cross section (N2) ([M-H]-)	collision cross section (N2) ([M+K]+) [Å²]
C[N+](C)(C)CCOP(=O)([O-])OP(=O)(O)OC[C@H]1O[C@@H](n2ccc(N)nc2=O)[C@H](O)[C@@H]1O [CITICOLINE]	198.3 Å²	210.2 Å²	207.8 Å²	205.9 Å²	–
CC(C)(COP(=O)(O)OP(=O)(O)OC[C@H]1O[C@@H](n2cnc3c(N)ncnc32)[C@H](O)[C@@H]1OP(=O)(O)O)[C@@H](O)C(=O)NCCC(=O)NCCS [COENZYME A]	241.4 Å²	246.2 Å²	255.5 Å²	244.4 Å²	–
C[C@]12CCC(=O)C=C1CC[C@@H]1[C@@H]2CC[C@@]2(C)[C@H]1CC[C@]2(O)C(=O)CO [CORTEXOLONE]	187.7 Å²	–	211 Å²	–	–
C[C@]12C[C@H](O)[C@H]3[C@@H](CCC4=CC(=O)CC[C@@]43C)[C@@H]1CC[C@@H]2C(=O)CO [CORTICOSTERONE]	186.9 Å²	–	–	186.8 Å²	208.4
C[C@]12CCC(=O)C=C1CC[C@@H]1[C@@H]2[C@@H](O)C[C@@]2(C)[C@H]1CC[C@]2(O)C(=O)CO [CORTISOL]	188.6 Å²	–	212.9 Å²	191.9 Å²	210.7
Nc1ncnc2c1ncn2[C@@H]1O[C@@H]2COP(=O)(O)O[C@H]2[C@H]1O [CYCLIC AMP]	172.6 Å² and 176.8 Å²	–	181 Å² and 188.6 Å² and 188.8 Å²	171.8 Å² and 172 Å²	–
Nc1ccn([C@@H]2O[C@H](COP(=O)(O)OP(=O)(O)O)[C@@H](O)[C@H]2O)c(=O)n1 [CYTIDINE DIPHOSPHATE]	175.6 Å²	176.3 Å²	179.9 Å²	174.2 Å²	–
O=C1O[C@H]([C@@H](O)CO)C(=O)C1=O [DEHYDROASCORBATE]	–	–	–	127.8 Å²	–
Nc1ncnc2c1ncn2[C@H]1C[C@H](O)[C@@H](COP(=O)(O)OP(=O)(O)OP(=O)(O)O)O1 [DEOXYADENOSINE TRIPHOSPHATE]	194.8 Å²	185.9 Å²	202 Å²	186.5 Å²	–
C[N+](C)(C)CCCC(=O)[O-] [DEOXYCARNITINE]	129.7 Å²	–	–	–	–

Further lines, results first:

collision cross section (N2) ([M+H]+)	collision cross section (N2) ([M+Na-2H]-)	collision cross section (N2) ([M+Na]+)	collision cross section (N2) ([M-H]-)	collision cross section (N2) ([M+K]+) [Å²]	Compound
196.9 Å²	–	–	–	–	CC(=O)OCC(=O)[C@H]1CC[C@H]2[C@@H]3CCC4=CC(=O)CC[C@]4(C)[C@H]3CC[C@]12C [DEOXYCORTICOSTERONE ACETATE]
–	–	171.7 Å²	159.1 Å²	171.4	Nc1nc(=O)c2ncn([C@H]3C[C@H](O)[C@@H](CO)O3)c2[nH]1 [DEOXYGUANOSINE]
–	188.9 Å²	185.3 Å²	178.6 Å²	–	O=c1ccn([C@H]2C[C@H](O)[C@@H](COP(=O)(O)OP(=O)(O)OP(=O)(O)O)O2)c(=O)[nH]1 [DEOXYURIDINE TRIPHOSPHATE]
–	–	156.4 Å²	148.9 Å²	–	O=c1ccn([C@H]2C[C@H](O)[C@@H](CO)O2)c(=O)[nH]1 [DEOXYURIDINE]
144 Å²	148.8 Å²	155 Å²	152.5 Å²	155.8	C[C@@H]1NC(=O)N[C@@H]1CCCCCC(=O)O [DETHIOBIOTIN]
188.5 Å²	177.5 Å² and 185.6 Å²	185.2 Å²	180.8 Å²	–	Nc1nc(=O)c2ncn([C@H]3C[C@H](O)[C@@H](COP(=O)(O)OP(=O)(O)O)O3)c2[nH]1 [DGDP]
–	–	–	125.2 Å²	–	O=C1CC(C(=O)O)NC(=O)N1 (centres undefined) [DIHYDROOROTATE]
–	218.2 Å²	209.9 Å²	209.5 Å²	–	Cc1cn([C@H]2C[C@H](O)[C@@H](COP(=O)(O)OP(=O)(O)OC3O[C@H](CO)[C@@H](O)[C@H](O)[C@H]3O)O2)c(=O)[nH]c1=O (stereo partly drawn) [DTDP-D-GLUCOSE]
–	–	–	140.1 Å²	–	CNC[C@H](O)c1ccc(O)c(O)c1 [EPINEPHRINE]
–	–	–	123 Å²	–	NCCOP(=O)(O)O [ETHANOLAMINE PHOSPHATE]
–	154.9 Å²	154.4 Å²	144.1 Å²	–	O=C(CO)[C@@H](O)[C@H](O)[C@H](O)COP(=O)(O)O [FRUCTOSE 6-PHOSPHATE]
–	–	158.3 Å²	148.7 Å²	–	O=P(O)(O)OC1O[C@H](CO)[C@@H](O)[C@H](O)[C@H]1O (some centres undefined) [GLUCOSE 1-PHOSPHATE]
